Results from patent US20230255906A1, “Targeting Serpin B9 in Cancer” (The Brigham and Women`s Hospital, Inc., priority 2020, published 2023).

test system: B16 melanoma cells; experiment: Caspase-3 activity assay (EnzChek Caspase-3 Assay Kit), caspase-3 induction in tumor cells; type: cell-based, mouse; conditions: not given; note: test concentration or dose not given here
In short: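 B16 melanoma cells exposed to compounds for 24 h, lysed on ice 30 min, and lysate incubated with Z-DEVD-R110 substrate about 30 min at room temperature. Fluorescence read at ~496/520 nm against untreated-cell and no-enzyme controls; caspase-3 induction serves as surrogate for GrB activity from Sb9 inhibition.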

SMILES | Ratio of caspase-3 activity to Formula (III)
CCc1ccc(CN(C)C(=O)c2ccc3oc(-c4cccc(F)c4)nc3c2)nc1 [N-[(5-ethyl-2-pyridinyl)methyl]-2-(3-fluorophenyl)-N-methyl-1,3-benzoxazole-5-carboxamide] | 0.1324
O=C(NC1CCC1)c1ccc2oc(-c3ccc(C(F)(F)F)cc3)nc2c1 [N-cyclobutyl-2-[4-(trifluoromethyl)phenyl]-1,3-benzoxazole-5-carboxamide] | 1.28
CCN(CCn1cccn1)C(=O)c1ccc2nc(-c3cccc(OC)c3)oc2c1 [N-ethyl-2-(3-methoxyphenyl)-N-[2-(1H-pyrazol-1-yl)ethyl]-1,3-benzoxazole-6-carboxamide] | 0.1363
CCN(CCO)C(=O)c1ccc2oc(-c3ccc(C(F)(F)F)cc3)nc2c1 [N-ethyl-N-(2-hydroxyethyl)-2-[4-(trifluoromethyl)phenyl]-1,3-benzoxazole-5-carboxamide] | 0.1437
CC(C)NC(=O)c1ccc2oc(-c3ccc(C(F)(F)F)cc3)nc2c1 [N-isopropyl-2-[4-(trifluoromethyl)phenyl]-1,3-benzoxazole-5-carboxamide] | 0.2847
CN(Cc1ccn[nH]1)C(=O)c1ccc2oc(-c3ccc(C(F)(F)F)cc3)nc2c1 [N-methyl-N-(1H-pyrazol-5-ylmethyl)-2-[4-(trifluoromethyl)phenyl]-1,3-benzoxazole-5-carboxamide] | 0.1414
CN(Cc1cccnc1)C(=O)c1ccc2oc(-c3ccc(C(F)(F)F)cc3)nc2c1 [N-methyl-N-(3-pyridinylmethyl)-2-[4-(trifluoromethyl)phenyl]-1,3-benzoxazole-5-carboxamide] | 0.1669
CN(Cc1ccncn1)C(=O)c1ccc2oc(-c3ccc(C(F)(F)F)cc3)nc2c1 [N-methyl-N-(4-pyrimidinylmethyl)-2-[4-(trifluoromethyl)phenyl]-1,3-benzoxazole-5-carboxamide] | 0.1443
CN(CCN1CCOCC1)C(=O)c1ccc2oc(-c3ccc(C(F)(F)F)cc3)nc2c1 [N-methyl-N-[2-(4-morpholinyl)ethyl]-2-[4-(trifluoromethyl)phenyl]-1,3-benzoxazole-5-carboxamide] | 0.1327
Cc1c[nH]c(CN(C)C(=O)c2ccc3oc(-c4ccc(C(F)(F)F)cc4)nc3c2)n1 [N-methyl-N-[(4-methyl-1H-imidazol-2-yl)methyl]-2-[4-(trifluoromethyl)phenyl]-1,3-benzoxazole-5-carboxamide] | 0.1327
O=C(c1ccc2oc(-c3ccc(C(F)(F)F)cc3)nc2c1)N1CCC[C@H]1CO [[(2S)-1-({2-[4-(trifluoromethyl)phenyl]-1,3-benzoxazol-5-yl}carbonyl)-2-pyrrolidinyl]methanol] | 0.1353
O=C(c1ccc2nc(-c3ccccc3)oc2c1)N1C[C@@H](F)C[C@H]1CO [[(2S,4S)-4-fluoro-1-(2-phenyl-1,3-benzoxazole-6-carbonyl)pyrrolidin-2-yl]methanol] | 0.09723
CCOC(=O)C1CCCN(C(=O)c2ccc3nc(-c4cccc(OC)c4)oc3c2)C1 (stereo not drawn) [ethyl 1-{[2-(3-methoxyphenyl)-1,3-benzoxazol-6-yl]carbonyl}-3-piperidinecarboxylate] | 0.1363
CCOC(=O)CC1CCCCN1C(=O)c1ccc2nc(-c3cccc(OC)c3)oc2c1 (stereo not drawn) [ethyl (1-{[2-(3-methoxyphenyl)-1,3-benzoxazol-6-yl]carbonyl}-2-piperidinyl)acetate] | 0.1479
CCOC(=O)CCNC(=O)c1ccc2oc(-c3cccc(F)c3)nc2c1 [ethyl N-{[2-(3-fluorophenyl)-1,3-benzoxazol-5-yl]carbonyl}-beta-alaninate] | 0.09329

same assay, conditions: relative to compound of Formula (III)

SMILES | Caspase-3 induction, Normalized to Formula (III) (%)
O=C(NCc1ccccc1)c1ccc2nc(C(F)(F)C(F)(F)F)oc2c1 [N-benzyl-2-(1,1,2,2,2-pentafluoroethyl)-1,3-benzoxazole-6-carboxamide] | −48.3904%
O=C(NCc1ccccc1)c1ccc2nc(-c3cc(Cl)cc(Cl)c3)oc2c1 [N-benzyl-2-(3,5-dichlorophenyl)-1,3-benzoxazole-6-carboxamide] | −36.0528%
CN(C)c1nc2c(C(=O)NCc3ccccc3)cccc2o1 [N-benzyl-2-(dimethylamino)-1,3-benzoxazole-4-carboxamide] | 61.2163%
CN(C)c1nc2cccc(C(=O)NCc3ccccc3)c2o1 [N-benzyl-2-(dimethylamino)-1,3-benzoxazole-7-carboxamide] | −26.8974%
O=C(NCc1ccccc1)c1ccc2nc(C3CCCO3)oc2c1 (stereo not drawn) [N-benzyl-2-(oxolan-2-yl)-1,3-benzoxazole-6-carboxamide] | −34.6335%
O=C(NCc1ccccc1)c1ccc2nc(C3CCCCC3)oc2c1 [N-benzyl-2-cyclohexyl-1,3-benzoxazole-6-carboxamide] | −61.2418%
O=C(NCc1ccccc1)c1ccc2nc(C3CC3)oc2c1 [N-benzyl-2-cyclopropyl-1,3-benzoxazole-6-carboxamide] | −32.882%
Cc1nc2c(C(=O)NCc3ccccc3)cccc2o1 [N-benzyl-2-methyl-1,3-benzoxazole-4-carboxamide] | −46.2057%
O=C(NCc1ccccc1)c1ccc2nc(S)oc2c1 [N-benzyl-2-sulfanyl-1,3-benzoxazole-6-carboxamide] | −17.7286%
Cc1cc(O)c(O)cc1C(=O)NCc1ccccc1 [N-benzyl-4,5-dihydroxy-2-methylbenzamide] | −43.6184%
CCOc1ccc(C(=O)NCc2ccccc2)cc1O [N-benzyl-4-ethoxy-3-hydroxybenzamide] | 19.0685%
COc1cc(C(=O)NCc2ccccc2)cc(OC)c1O [N-benzyl-4-hydroxy-3,5-dimethoxybenzamide] | −17.7065%
O=C(NCc1ccccc1)c1cc2c(cc1O)OCO2 [N-benzyl-6-hydroxy-2H-1,3-benzodioxole-5-carboxamide] | −9.366%
CN(C)c1nc2c(C(=O)NC3CCCC3)cccc2o1 [N-cyclopentyl-2-(dimethylamino)-1,3-benzoxazole-4-carboxamide] | −20.9929%
CN(C)c1nc2cccc(C(=O)NC3CCCC3)c2o1 [N-cyclopentyl-2-(dimethylamino)-1,3-benzoxazole-7-carboxamide] | −47.699%
O=C(NC1CCCC1)c1ccc2nc(C3CC3)oc2c1 [N-cyclopentyl-2-cyclopropyl-1,3-benzoxazole-6-carboxamide] | −21.5068%
Cc1nc2c(C(=O)NC3CCCC3)cccc2o1 [N-cyclopentyl-2-methyl-1,3-benzoxazole-4-carboxamide] | −30.2879%

SMILES | Caspase-3 induction, Normalized to Formula (III) (%)
O=C(NC1CCCC1)c1ccc2nc(S)oc2c1 [N-cyclopentyl-2-sulfanyl-1,3-benzoxazole-6-carboxamide] | −81.3264%
Cc1cc(O)c(O)cc1C(=O)NC1CCCC1 [N-cyclopentyl-4,5-dihydroxy-2-methylbenzamide] | −66.5183%
CCOc1ccc(C(=O)NC2CCCC2)cc1O [N-cyclopentyl-4-ethoxy-3-hydroxybenzamide] | 4.1370%
COc1cc(C(=O)NC2CCCC2)cc(OC)c1O [N-cyclopentyl-4-hydroxy-3,5-dimethoxybenzamide] | −24.5783%
O=C(NC1CCCC1)c1cc2c(cc1O)OCO2 [N-cyclopentyl-6-hydroxy-2H-1,3-benzodioxole-5-carboxamide] | −61.6444%
CCN(C)C(=O)c1cc(O)c(O)cc1C [N-ethyl-4,5-dihydroxy-N,2-dimethylbenzamide] | −33.2116%
CCN(C)C(=O)c1cc(OC)c(O)c(OC)c1 [N-ethyl-4-hydroxy-3,5-dimethoxy-N-methylbenzamide] | −34.6356%
CCN(C)C(=O)c1ccc(O)c(OC)c1 [N-ethyl-4-hydroxy-3-methoxy-N-methylbenzamide] | −33.3917%
CCN(C)C(=O)c1cc2c(cc1O)OCO2 [N-ethyl-6-hydroxy-N-methyl-2H-1,3-benzodioxole-5-carboxamide] | −3.424%
CCN(C)C(=O)c1ccc2oc(C)nc2c1 [N-ethyl-N,2-dimethyl-1,3-benzoxazole-5-carboxamide] | −65.6678%
CCN(C)C(=O)c1ccc2ocnc2c1 [N-ethyl-N-methyl-1,3-benzoxazole-5-carboxamide] | −74.9828%
CCN(C)C(=O)c1ccc2nc(C(F)(F)C(F)(F)F)oc2c1 [N-ethyl-N-methyl-2-(1,1,2,2,2-pentafluoroethyl)-1,3-benzoxazole-6-carboxamide] | −28.449%
CCN(C)C(=O)c1ccc2nc(C3CCCO3)oc2c1 (stereo not drawn) [N-ethyl-N-methyl-2-(oxolan-2-yl)-1,3-benzoxazole-6-carboxamide] | 8.3538%
CCN(C)C(=O)c1ccc2oc(=O)[nH]c2c1 [N-ethyl-N-methyl-2-oxo-2,3-dihydro-1,3-benzoxazole-5-carboxamide] | −21.7056%
CCN(C)C(=O)c1ccc2nc(-c3ccccc3)oc2c1 [N-ethyl-N-methyl-2-phenyl-1,3-benzoxazole-6-carboxamide] | −76.883%
CCN(C)C(=O)c1ccc2nc(S)oc2c1 [N-ethyl-N-methyl-2-sulfanyl-1,3-benzoxazole-6-carboxamide] | −6.201%
